Values quoted from earlier work as cited in patent publication US20210308071A1, “Treatment method to abort and or reduce the severity of upper respiratory viral illness as well as to prevent upper respiratory viral illness in humans” (priority 2020, published 2021).
Read-outs that look alike come from different tables or passages of the source.

Settings: for orally administered dose excreted as the glucuronic acid conjugate within 24 hours: humans

- administered dose detected as the glucuronic acid conjugate in human urine (10 hours after ingestion of 2000 mg): 81%
- orally administered dose excreted as the glucuronic acid conjugate within 24 hours (oral 1000 mg): 81%
- orally administered dose excreted as the glucuronic acid conjugate within 24 hours (oral 2000 mg): 94%
Compound: CC1(C)C2CCC1(C)C(O)C2 (stereo not drawn) [Borneol]
